Test results: PubChem BioAssay (NCI)
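Dose response: 5 concentrations. Exposure: 48 h. Format: 96-well plates. Endpoint: linear interpolation; highest concentration if not reached. GI50: concentration for 50% inhibition of growth. Definition used: TGI = concentration required for complete inhibition of growth.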

Assays:
Experiment in all cases: NCI-60 cell line screen, 48 h
MDA-MB-435 = tested on: MDA-MB-435
NCI-H226 lung = tested on: NCI-H226 lung
NCI-H460 lung = tested on: NCI-H460 lung
SK-MEL-2 melanoma = tested on: SK-MEL-2 melanoma
SF-539 CNS = tested on: SF-539 CNS
SF-268 CNS = tested on: SF-268 CNS
OVCAR-4 ovarian = tested on: OVCAR-4 ovarian
RPMI-8226 leukemia = tested on: RPMI-8226 leukemia
U251 CNS = tested on: U251 CNS
RXF 393 renal = tested on: RXF 393 renal
HCT-15 colon = tested on: HCT-15 colon
MCF7 breast = tested on: MCF7 breast
HCC-2998 colon = tested on: HCC-2998 colon
MOLT-4 leukemia = tested on: MOLT-4 leukemia
HL-60(TB) leukemia = tested on: HL-60(TB) leukemia
A549 NSCLC = tested on: A549 NSCLC
UACC-257 melanoma = tested on: UACC-257 melanoma
SNB-19 CNS = tested on: SNB-19 CNS
EKVX NSCLC = tested on: EKVX NSCLC
SR leukemia = tested on: SR leukemia
HS 578T breast = tested on: HS 578T breast
PC-3 prostate = tested on: PC-3 prostate
SN12C renal = tested on: SN12C renal
OVCAR-8 ovarian = tested on: OVCAR-8 ovarian
M14 melanoma = tested on: M14 melanoma
OVCAR-5 ovarian = tested on: OVCAR-5 ovarian
HOP-92 NSCLC = tested on: HOP-92 NSCLC
DU-145 prostate = tested on: DU-145 prostate
SNB-75 CNS = tested on: SNB-75 CNS
LOX IMVI melanoma = tested on: LOX IMVI melanoma
BT-549 breast = tested on: BT-549 breast
UO-31 renal = tested on: UO-31 renal
SF-295 CNS = tested on: SF-295 CNS
CCRF-CEM leukemia = tested on: CCRF-CEM leukemia
SK-OV-3 ovarian = tested on: SK-OV-3 ovarian
NCI/ADR-RES ovarian = tested on: NCI/ADR-RES ovarian
MALME-3M melanoma = tested on: MALME-3M melanoma
A498 renal = tested on: A498 renal
786-0 renal = tested on: 786-0 renal
KM12 colon = tested on: KM12 colon
HOP-62 NSCLC = tested on: HOP-62 NSCLC
SW-620 colon = tested on: SW-620 colon
K-562 leukemia = tested on: K-562 leukemia
UACC-62 melanoma = tested on: UACC-62 melanoma
TK-10 renal = tested on: TK-10 renal
HT29 colon = tested on: HT29 colon
SK-MEL-5 melanoma = tested on: SK-MEL-5 melanoma
NCI-H522 lung = tested on: NCI-H522 lung
HCT-116 colon = tested on: HCT-116 colon
SK-MEL-28 melanoma = tested on: SK-MEL-28 melanoma
IGROV1 ovarian = tested on: IGROV1 ovarian
COLO 205 colon = tested on: COLO 205 colon
ACHN renal = tested on: ACHN renal
MDA-MB-231 breast = tested on: MDA-MB-231 breast
CAKI-1 renal = tested on: CAKI-1 renal
NCI-H23 lung = tested on: NCI-H23 lung

## CCN1C(=O)N(CC)C2SC(N/N=C/C=C/c3ccccc3OC)=NC21 (stereo unspecified)
MDA-MB-435
  GI50: 224 nM
  TGI: 560 nM
NCI-H226 lung
  GI50: 562 nM
  TGI: > 100000 nM
NCI-H460 lung
  GI50: 379 nM
  TGI: 13100 nM
SK-MEL-2 melanoma
  GI50: 672 nM
  TGI: 18100 nM
SF-539 CNS
  GI50: 305 nM
  TGI: 2940 nM
SF-268 CNS
  GI50: 2510 nM
  TGI: > 100000 nM
OVCAR-4 ovarian
  GI50: 20300 nM
  TGI: > 100000 nM
RPMI-8226 leukemia
  GI50: 398 nM
  TGI: 18200 nM
U251 CNS
  GI50: 400 nM
  TGI: 16900 nM
RXF 393 renal
  GI50: 350 nM
  TGI: 8900 nM
HCT-15 colon
  GI50: 428 nM
  TGI: > 100000 nM
MCF7 breast
  GI50: 427 nM
  TGI: > 100000 nM
HCC-2998 colon
  GI50: 853 nM
  TGI: 13600 nM
MOLT-4 leukemia
  GI50: 652 nM
  TGI: > 100000 nM
HL-60(TB) leukemia
  GI50: 299 nM
A549 NSCLC
  GI50: 750 nM
  TGI: > 100000 nM
UACC-257 melanoma
  GI50: 838 nM
  TGI: > 100000 nM
SNB-19 CNS
  GI50: 538 nM
  TGI: > 100000 nM
EKVX NSCLC
  GI50: 1120 nM
  TGI: > 100000 nM
SR leukemia
  GI50: 351 nM
  TGI: > 100000 nM
HS 578T breast
  GI50: 321 nM
  TGI: > 100000 nM
PC-3 prostate
  GI50: 474 nM
  TGI: > 72500 nM
SN12C renal
  GI50: 991 nM
  TGI: > 76600 nM
OVCAR-8 ovarian
  GI50: 588 nM
  TGI: 7140 nM
M14 melanoma
  GI50: 313 nM
  TGI: 3230 nM
OVCAR-5 ovarian
  GI50: 1300 nM
  TGI: > 100000 nM
HOP-92 NSCLC
  GI50: 266 nM
  TGI: 4300 nM
DU-145 prostate
  GI50: 704 nM
  TGI: > 100000 nM
SNB-75 CNS
  GI50: 265 nM
  TGI: > 100000 nM
LOX IMVI melanoma
  GI50: 569 nM
  TGI: 26900 nM
BT-549 breast
  GI50: 353 nM
  TGI: 1410 nM
UO-31 renal
  GI50: 730 nM
  TGI: > 100000 nM
SF-295 CNS
  GI50: 371 nM
  TGI: > 55100 nM
CCRF-CEM leukemia
  GI50: 386 nM
  TGI: > 100000 nM
SK-OV-3 ovarian
  GI50: 528 nM
  TGI: > 100000 nM
NCI/ADR-RES ovarian
  GI50: 495 nM
  TGI: > 100000 nM
MALME-3M melanoma
  GI50: 504 nM
  TGI: > 100000 nM
A498 renal
  GI50: 188 nM
  TGI: 636 nM
786-0 renal
  GI50: 758 nM
  TGI: 18900 nM
KM12 colon
  GI50: 431 nM
  TGI: > 46300 nM
HOP-62 NSCLC
  GI50: 535 nM
  TGI: > 100000 nM
SW-620 colon
  GI50: 383 nM
  TGI: > 100000 nM
K-562 leukemia
  GI50: 400 nM
  TGI: > 100000 nM
UACC-62 melanoma
  GI50: 405 nM
  TGI: > 100000 nM
TK-10 renal
  GI50: 19400 nM
  TGI: > 96600 nM
HT29 colon
  GI50: 346 nM
  TGI: 3820 nM
SK-MEL-5 melanoma
  GI50: 525 nM
  TGI: 9170 nM
NCI-H522 lung
  GI50: 236 nM
  TGI: 703 nM
HCT-116 colon
  GI50: 419 nM
  TGI: > 100000 nM
SK-MEL-28 melanoma
  GI50: 1510 nM
  TGI: > 100000 nM
IGROV1 ovarian
  GI50: 668 nM
  TGI: > 100000 nM
COLO 205 colon
  GI50: 308 nM
  TGI: 951 nM
ACHN renal
  GI50: 744 nM
  TGI: > 100000 nM
MDA-MB-231 breast
  GI50: 1500 nM
  TGI: 38600 nM
CAKI-1 renal
  GI50: 567 nM
  TGI: > 100000 nM
NCI-H23 lung
  GI50: 614 nM
  TGI: > 100000 nM
